The source of these data is publication PMC11678906, “Evaluation of In Vitro Inhibition of β-Hematin Formation: A Step Towards a Comprehensive Understanding of the Mechanism of Action of New Arylamino Alcohols” (Microorganisms, 2024).

Where two headings read alike, the source gives them in different places.

The subject of data set [1] is Plasmodium falciparum 3D7 strain. Description: In vitro antimalarial activity, SYBR Green I fluorescence-based method, Pf3D7. Format: cell-based. To be noted: for IC50: Plasmodium falciparum, 3D7, SYBR Green I, 48 h incubation, strain with decreased susceptibility to MQ, 1a-b re-assayed here, mean ± SD of three experiments; for Eudysmic Ratio Pf3D7: ratio of IC50s of the enantiomer pair, eutomer configuration in parentheses. An excerpt:
(§1) IC50s, corresponding to in vitro antimalarial activity against PfW2 and Pf3D7, was previously determined for compounds 2a-b, 3a-b and reference molecules using the SYBR Green I fluorescence-based method. As compounds 1a-b were previously screened using the hypoxanthine-tritied method, they were here re-assayed with the SYBR Green I fluorescence-based method described elsewhere for comparison with the other two Series (2 and 3) and reference molecules. When possible, eudysmic ratios were calculated. The SYBR green I fluorescence-based method is detailed below.
(§2) Compounds were dissolved in DMSO and then diluted in sterile water in order to obtain a range of concentrations from 40 nM to […] for the first screening against culture-adapted Plasmodium falciparum reference strains 3D7 and W2. […] These two strains were obtained from the collection of the National Museum of Natural History (Paris, France). The parasites were cultivated in RPMI medium (Sigma-Aldrich, Saint Quentin Fallavier, France) supplemented with 0.5% Albumax I (Life Technologies Corporation, Paisley, UK), hypoxanthine (Sigma-Aldrich, Saint Quentin Fallavier, France) and gentamicin (Sigma-Aldrich, Saint Quentin Fallavier, France) with human erythrocytes and were incubated at 37 °C with 5% CO2 [26]. The P. falciparum drug susceptibility test was carried out in 96-well flat-bottomed sterile plates in a final volume of 250 μL. After a 48 h incubation period with the drugs, quantities of DNA in treated and control cultures of parasites in human erythrocytes were quantified using the SYBR Green I (Sigma-Aldrich, Saint Quentin Fallavier, France) fluorescence-based method. Briefly, after incubation, the plates were frozen at −20 °C until use. The plates were then thawed for 2 h at room temperature, and 100 μL of each homogenized culture was transferred to a well of a 96-well flat-bottomed sterile black plate (Sigma-Aldrich, Saint Quentin Fallavier, France) that contained 100 μL of the SYBR Green I lysis buffer (2xSYBR Green, 20 mM Tris base pH 7.5, 5 mM EDTA, 0.008% w/v saponin, 0.08% w/v Triton X-100). Negative controls treated with solvent (typically DMSO or H2O) and positive controls (CQ and MQ) were added to each set of experiments. Plates were incubated for 1 h at room temperature and then read on a fluorescence plate reader (Tecan Trading AG, Männedorf, Switzerland) using excitation and emission wavelengths of 485 and 535 nm, respectively.

For data set [2], the system named is Plasmodium falciparum W2 strain. Description: In vitro antimalarial activity, SYBR Green I fluorescence-based method, PfW2. The format is cell-based. To be noted: for IC50: Plasmodium falciparum, W2, SYBR Green I, 48 h incubation, CQ-resistant strain, 1a-b re-assayed here, mean ± SD of three experiments; for Eudysmic Ratio PfW2: ratio of IC50s of the enantiomer pair, eutomer configuration in parentheses.
Excerpt: as §1, §2

The test system of the next data set is β-hematin formation. Description: Inhibition of β-hematin formation. The format is biochemical. To be noted: for Inhibition (%) of β-hematin formation at 2 mM: 24 h at 37 °C, versus negative control, mean ± SD of three experiments; for IC50: concentration range 0–2 mM, determined graphically. As for the experimental part: Briefly, 100 μL of a fresh 6.5 mM solution of hemin (Sigma-Aldrich, SaintQuentin Fallavier, France) dissolved in 0.2 M NaOH was mixed with 100 μL of 3 M sodium acetate, 25 μL of 17.4 M acetic acid and 25 μL of the tested drug or controls (water and MeOH/DMSO). Magnetic stirring of the solution was used to avoid sedimentation. After 24 h incubation at 37 °C under shaking, the supernatant resulting from centrifugation for 15 min at 3300× g was discarded. The pellet was washed twice with 200 μL DMSO. After a final wash with water, the pellet was dissolved in 200 μL with 0.1 M NaOH. After a further 1:30 dilution, absorption at 405 nm was read using a microplate photometer (Multiskan® EX, Thermo Scientific, Waltham, MA, USA). CQ, MQ, ENP (considered as positive controls), water and MeOH/DMSO (considered as negative controls) were included in each experiment. […] Statistical significance was defined as a value of p ≤ 0.05.

Data set [3] is described as follows: In vitro cytotoxicity, MTT assay on HepG2. The format is cell-based, human. The conditions noted are these: human, HepG2 cells; MTT, 72 h incubation; mean ± SD of three experiments. Here is the method:
(§3) Briefly, in 96-well plates, 100 µL of a cell culture adjusted to 25,000 cells/mL was dispensed and the plates were incubated at 37 °C in a humidified 5% CO2 atmosphere for 24 h to allow the cells to adhere to the bottom of the wells. After microscopic verification of the adherent cells, the culture medium was removed and replaced with 100 μL of medium with the compounds at various concentrations dissolved in DMSO (final concentration less than 0.5% v/v), and the plates were incubated for 72 h at 37 °C. Controls were DMSO in medium (0.5% v/v) without compound as blank. Then, the supernatant from each well was removed prior to the addition of 100 µL of 3-(4,5-dimethyl-2-thiazolyl)-2,5-diphenyl-2H-tetrazolium bromide (MTT) solution (0.5 mg/mL in culture medium) per well. After 2 h of incubation, the supernatant from each well was removed and 100 µL of DMSO was added to dissolve the resulting blue formazan crystals accumulated at the bottom of the wells. The plates were incubated for 5 min at 37 °C in a humidified 5% CO2 atmosphere. Then, the wells were homogenized by shaking the plates for 10 min with a microplate shaker. The absorbance was read using the Tecan’s Sunrise™ absorbance microplate reader at 570 nm with 630 nm as the reference wavelength. […] Selectivity index (SI) was calculated and defined as the ratio between CC50 values on HepG2 and IC50.

For a further data set, the system named is HepG2 cell line. Description: In vitro cytotoxicity, MTT assay on HepG2. The format is cell-based, human. To be noted: for Selectivity Index HepG2/3D7: CC50 on HepG2 / IC50 against Pf3D7; for SI times higher than that of parental drug MQ: versus MQ. As for the experimental part: as §3
In data set [4] the test system is Plasmodium falciparum W2 strain. Set-up: method as in earlier work. The conditions noted are these: SYBR Green I, CQ-resistant strain; previously determined for 2a-b, 3a-b and reference molecules; read-out: IC50 PfW2; cited from earlier work.
Data set [5] concerns Plasmodium falciparum 3D7 strain. Set-up: method as in earlier work. The conditions noted are these: SYBR Green I, strain with decreased susceptibility to MQ; previously determined for 2a-b, 3a-b and reference molecules; read-out: IC50 Pf3D7; cited from earlier work.
A further data set relates to hemozoin formation. The conditions noted are these: according to different studies; cited from earlier work.
In the next data set the test system is PfD6. Set-up: method as in PMID 8513873. The conditions noted are these: Figure 1; cited from earlier work.
A further data set relates to Plasmodium falciparum. Set-up: method as in PMID 8513873. The conditions noted are these: Figure 1, (S,R) vs (R,S) MQ, (+)- vs (-)-ENP; cited from earlier work.
Another data set concerns PfW2. Set-up: method as in PMID 8513873. The conditions noted are these: Figure 1; cited from earlier work.

`CCCCNC[C@@H](O)c1cc(C(F)(F)F)nc2c(C(F)(F)F)cccc12` [1a]: in [1], the IC50 amounted to 0.0151 ± 0.0033 µM and the “Eudysmic Ratio Pf3D7” value worked out at 1. In addition, in data set [2], the 50% inhibitory concentration (IC50) was found to be 0.005 ± 0.0003 µM and the “Eudysmic Ratio PfW2” value was 1.46 (S). Besides, in the data set with β-hematin formation, the “Inhibition (%) of β-hematin formation at 2 mM” value (“Inhibition (%)” below) is 81.8 ± 8.4% and the half-maximal inhibitory concentration (IC50) was 1170 ± 320 µM. This compound also yielded a CC50 at 72 h in [3] of 25.6 ± 2.7 µM. In the data set with HepG2 cell line, the “Selectivity Index HepG2/3D7” value is listed as 1695 and the “SI times higher than that of parental drug MQ” value was 15–23 times.
Take `CCCCNC[C@H](O)c1cc(C(F)(F)F)nc2c(C(F)(F)F)cccc12` [1b]: in [1], the IC50 is 0.0151 ± 0.0034 µM and the “Eudysmic Ratio Pf3D7” value came out at 1. Further, in [2], the concentration for half-maximal inhibition (IC50) turned out to be 0.0073 ± 0.0009 µM and the “Eudysmic Ratio PfW2” value is recorded as 1.46 (S). In the data set with β-hematin formation, the “Inhibition (%)” value came out at 71.3 ± 10.3% and the IC50 came to 1310 ± 540 µM. In data set [3], this compound yielded a CC50 at 72 h of 37.8 ± 1.9 µM. Moreover, in the data set on HepG2 cell line, the “Selectivity Index HepG2/3D7” value is 2503 and the “SI times higher than that of parental drug MQ” value is given as 15–23 times.
Take `CCCCNC[C@@H](O)c1cc(-c2ccc(C(F)(F)F)cc2)nc(C(F)(F)F)c1` [2a]: the “Eudysmic Ratio Pf3D7” value in [1] is 1.2 (S). Also, the “Eudysmic Ratio PfW2” value in [2] was 1.1 (S). In addition, the “Inhibition (%)” value in the data set on β-hematin formation amounted to 73.5 ± 18.0%. Also, the 50% inhibitory concentration (IC50) was 1450 ± 300 µM in the data set on β-hematin formation, 0.009 ± 0.0004 µM in [4] and 0.0458 ± 0.0023 µM in data set [5]. In data set [3], this compound returned a half-maximal cytotoxic concentration (CC50) at 72 h of 4 ± 0.9 µM. Besides, the “Selectivity Index HepG2/3D7” value in the data set with HepG2 cell line was found to be 87.
On to `CCCCNC[C@H](O)c1cc(-c2ccc(C(F)(F)F)cc2)nc(C(F)(F)F)c1` [2b], for which the “Eudysmic Ratio Pf3D7” value in data set [1] is 1.2 (S). Further, the “Eudysmic Ratio PfW2” value in data set [2] is 1.1 (S). The “Inhibition (%)” value in the data set with β-hematin formation is reported as 54.0 ± 22.7%. For the same compound, the IC50 with β-hematin formation was 1770 ± 220 µM; in [4], 0.01 ± 0.0007 µM; in data set [5], 0.0567 ± 0.0048 µM. Moreover, the CC50 at 72 h in data set [3] was found to be 4 ± 0.7 µM. For the same compound, in the data set with HepG2 cell line, the “Selectivity Index HepG2/3D7” value was 70.
For the compound `CCCCNC[C@@H](O)c1ccc(-c2ccc(C(F)(F)F)cc2)nc1C(F)(F)F` [3a], in the data set with β-hematin formation, the “Inhibition (%)” value is reported as 48.3 ND ^c %. Also, the IC50 in the data set with β-hematin formation is over 2000 µM; in data set [4], 0.132 ± 0.0103 µM; in data set [5] it was 0.479 ± 0.0382 µM. Moreover, it took 11.6 ± 0.7 µM to reach half-maximal cytotoxicity in data set [3] (CC50 at 72 h). Also, in the data set on HepG2 cell line, the “Selectivity Index HepG2/3D7” value was found to be 24.
As to `CCCCNC[C@H](O)c1ccc(-c2ccc(C(F)(F)F)cc2)nc1C(F)(F)F` [3b], the “Eudysmic Ratio Pf3D7” value in data set [1] is 2.9 (S). Also, the “Eudysmic Ratio PfW2” value in [2] is 4.0 (S). For the same compound, the “Inhibition (%)” value in the data set with β-hematin formation is recorded as 40.6 ± 28.3%. Also, the figures for the IC50 (in the data set on β-hematin formation; in data set [4]; in data set [5]) were over 2000 µM, 0.523 ± 0.0958 µM and 1.38 ± 0.993 µM, respectively. This compound gave a CC50 at 72 h in data set [3] of over 100 µM. The “Selectivity Index HepG2/3D7” value in the data set on HepG2 cell line is over 72.
For `CCN(CC)CCCC(C)Nc1ccnc2cc(Cl)ccc12` (stereo not drawn) [Chloroquine, chloroquine, reference compound], the “inhibition of in vitro hemozoin formation” value in the data set with hemozoin formation is on record as “up to 90%”. In addition, the IC50 is 0.199 ± 0.027 µM in data set [4] and 0.0759 ± 0.003 µM in data set [5].
In the case of `OC(c1cc(-c2ccc(C(F)(F)F)cc2)nc(C(F)(F)F)c1)C1CCCCN1` (stereo not drawn) [Enpiroline, enpiroline, reference compound], the IC50 in the data set on PfD6 was 0.0164 µM; in the data set with β-hematin formation, over 2000 µM; in [4] it was 0.0115 ± 0.0023 µM; in the data set with PfW2, 0.00285 µM; in data set [5], 0.0216 ± 0.0014 µM. Further, in the data set with β-hematin formation, the “Inhibition (%)” value turned out to be 20.3 ND ^c %. For the same compound, in the data set with Plasmodium falciparum, the “IC50 ratio between enantiomers” value is 1.15–1.22 times. In addition, in [3], the CC50 at 72 h was 4.4 ± 0.6 µM. Besides, the “Selectivity Index HepG2/3D7” value in the data set with HepG2 cell line came out at 204.
With `OC(c1cc(C(F)(F)F)nc2c(C(F)(F)F)cccc12)C1CCCCN1` (stereo not drawn) [Mefloquine, mefloquine, reference compound], the IC50 with PfD6 is 0.0344 µM; in [4], 0.0318 ± 0.001 µM; in the data set on PfW2 it was 0.0039 µM; in [5], 0.0797 ± 0.0085 µM. In the data set with β-hematin formation, the “Inhibition (%)” value was 61.3 ± 8.5%. For the same compound, the midpoint of cytotoxicity in [3], the CC50 at 72 h, lay at 8.6 ± 2.6 µM.
